Targets include ADCK1 (Homo sapiens, UniProt Q86TW2); AURKB (Homo sapiens, UniProt Q96GD4); BMX (Homo sapiens, UniProt P51813); BRSK2 (Homo sapiens, UniProt Q8IWQ3); CAMK1 (Homo sapiens, UniProt Q14012); CDK2 (Homo sapiens, UniProt P24941); CLK1 (Homo sapiens, UniProt P49759); CSNK2A2 (Homo sapiens, UniProt P19784); DDR2 (Homo sapiens, UniProt Q16832); DYRK2 (Homo sapiens, UniProt Q92630); EPHA4 (Homo sapiens, UniProt P54764); HCK (Homo sapiens, UniProt P08631); MAP3K13 (Homo sapiens, UniProt O43283); MYLK (Homo sapiens, UniProt Q15746); NEK7 (Homo sapiens, UniProt Q8TDX7); PIK3C3 (Homo sapiens, UniProt Q8NEB9); PKN3 (Homo sapiens, UniProt Q6P5Z2); STK11 (Homo sapiens, UniProt Q15831); TYRO3 (Homo sapiens, UniProt Q06418); WNK4 (Homo sapiens, UniProt Q96J92); mTOR (Homo sapiens, UniProt P42345).

What all share (test): biochemical
What all share (set-up): species or system HEK293/K-562/placenta mixed human extract; Kinobeads chemoproteomic competition binding, quantified by TMT LC-MS/MS, dose response up to 20 uM

pIC50: −log10 of the molar value.

DDR2, sequence (Q16832 whole entry): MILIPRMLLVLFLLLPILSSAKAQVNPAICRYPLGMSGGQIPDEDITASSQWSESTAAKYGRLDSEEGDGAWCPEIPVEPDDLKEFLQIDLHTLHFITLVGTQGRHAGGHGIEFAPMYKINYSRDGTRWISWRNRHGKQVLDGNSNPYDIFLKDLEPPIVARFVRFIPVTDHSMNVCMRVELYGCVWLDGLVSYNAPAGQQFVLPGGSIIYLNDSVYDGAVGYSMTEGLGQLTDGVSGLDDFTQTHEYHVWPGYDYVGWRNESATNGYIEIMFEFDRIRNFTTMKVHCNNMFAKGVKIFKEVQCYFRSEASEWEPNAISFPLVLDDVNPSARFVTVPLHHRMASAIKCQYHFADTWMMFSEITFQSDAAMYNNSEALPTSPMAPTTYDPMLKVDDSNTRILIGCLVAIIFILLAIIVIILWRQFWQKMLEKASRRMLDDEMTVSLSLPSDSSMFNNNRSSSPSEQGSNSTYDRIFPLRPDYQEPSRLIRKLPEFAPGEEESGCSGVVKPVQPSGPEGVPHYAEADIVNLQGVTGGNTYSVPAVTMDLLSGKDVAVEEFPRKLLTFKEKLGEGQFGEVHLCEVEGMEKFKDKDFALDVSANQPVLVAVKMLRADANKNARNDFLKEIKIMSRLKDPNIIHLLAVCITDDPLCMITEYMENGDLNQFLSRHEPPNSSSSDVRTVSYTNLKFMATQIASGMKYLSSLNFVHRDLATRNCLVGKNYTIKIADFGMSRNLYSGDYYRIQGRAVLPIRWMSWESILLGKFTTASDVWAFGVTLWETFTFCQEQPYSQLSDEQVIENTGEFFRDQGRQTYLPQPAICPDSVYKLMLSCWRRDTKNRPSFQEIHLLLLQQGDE
EPHA4, sequence (P54764 whole entry): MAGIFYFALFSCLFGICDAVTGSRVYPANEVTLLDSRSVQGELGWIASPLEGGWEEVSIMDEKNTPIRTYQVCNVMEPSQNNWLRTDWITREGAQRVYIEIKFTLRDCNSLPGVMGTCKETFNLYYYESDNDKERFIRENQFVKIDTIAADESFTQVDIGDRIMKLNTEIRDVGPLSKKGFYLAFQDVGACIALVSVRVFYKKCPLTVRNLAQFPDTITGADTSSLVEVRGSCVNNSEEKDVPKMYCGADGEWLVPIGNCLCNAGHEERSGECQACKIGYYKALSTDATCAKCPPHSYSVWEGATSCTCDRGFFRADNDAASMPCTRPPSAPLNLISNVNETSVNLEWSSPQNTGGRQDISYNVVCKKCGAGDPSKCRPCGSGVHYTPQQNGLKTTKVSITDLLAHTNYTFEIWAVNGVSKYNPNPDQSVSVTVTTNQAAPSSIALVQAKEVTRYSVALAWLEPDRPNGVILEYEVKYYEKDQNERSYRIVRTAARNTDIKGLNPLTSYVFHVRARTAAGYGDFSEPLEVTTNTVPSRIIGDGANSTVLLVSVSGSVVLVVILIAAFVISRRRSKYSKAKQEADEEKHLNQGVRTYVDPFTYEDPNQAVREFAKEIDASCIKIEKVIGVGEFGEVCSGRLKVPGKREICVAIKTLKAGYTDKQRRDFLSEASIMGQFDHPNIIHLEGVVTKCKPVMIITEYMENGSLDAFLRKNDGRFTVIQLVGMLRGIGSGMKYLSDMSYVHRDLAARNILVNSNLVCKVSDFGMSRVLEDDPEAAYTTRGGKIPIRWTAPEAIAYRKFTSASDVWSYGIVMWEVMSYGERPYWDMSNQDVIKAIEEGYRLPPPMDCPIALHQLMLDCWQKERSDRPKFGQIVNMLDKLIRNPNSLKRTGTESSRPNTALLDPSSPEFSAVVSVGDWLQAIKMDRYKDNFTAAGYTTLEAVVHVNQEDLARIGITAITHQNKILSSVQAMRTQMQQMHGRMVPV
TYRO3, sequence (Q06418 whole entry): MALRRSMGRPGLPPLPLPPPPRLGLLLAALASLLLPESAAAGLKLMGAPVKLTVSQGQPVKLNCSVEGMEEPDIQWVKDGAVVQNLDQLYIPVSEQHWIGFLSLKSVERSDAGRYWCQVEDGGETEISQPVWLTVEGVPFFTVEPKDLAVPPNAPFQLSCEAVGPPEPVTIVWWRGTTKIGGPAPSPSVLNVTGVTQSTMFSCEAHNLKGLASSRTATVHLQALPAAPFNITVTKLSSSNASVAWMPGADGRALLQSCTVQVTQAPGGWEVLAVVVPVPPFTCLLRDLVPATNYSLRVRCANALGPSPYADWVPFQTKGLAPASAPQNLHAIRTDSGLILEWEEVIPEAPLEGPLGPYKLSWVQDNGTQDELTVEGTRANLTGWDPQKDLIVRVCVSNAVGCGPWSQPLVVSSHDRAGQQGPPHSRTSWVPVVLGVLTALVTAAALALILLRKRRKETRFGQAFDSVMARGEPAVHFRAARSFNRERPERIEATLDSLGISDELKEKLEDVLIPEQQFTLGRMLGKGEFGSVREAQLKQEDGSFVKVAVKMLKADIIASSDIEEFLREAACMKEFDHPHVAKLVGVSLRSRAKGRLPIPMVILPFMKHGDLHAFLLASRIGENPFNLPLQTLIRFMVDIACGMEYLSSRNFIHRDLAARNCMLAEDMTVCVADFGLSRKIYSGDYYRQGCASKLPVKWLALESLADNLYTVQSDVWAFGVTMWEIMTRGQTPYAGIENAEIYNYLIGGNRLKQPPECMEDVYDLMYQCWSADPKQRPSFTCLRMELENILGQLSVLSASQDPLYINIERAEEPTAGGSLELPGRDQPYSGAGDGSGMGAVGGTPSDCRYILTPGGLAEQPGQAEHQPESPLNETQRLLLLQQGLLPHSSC
MAP3K13, sequence (O43283 whole entry): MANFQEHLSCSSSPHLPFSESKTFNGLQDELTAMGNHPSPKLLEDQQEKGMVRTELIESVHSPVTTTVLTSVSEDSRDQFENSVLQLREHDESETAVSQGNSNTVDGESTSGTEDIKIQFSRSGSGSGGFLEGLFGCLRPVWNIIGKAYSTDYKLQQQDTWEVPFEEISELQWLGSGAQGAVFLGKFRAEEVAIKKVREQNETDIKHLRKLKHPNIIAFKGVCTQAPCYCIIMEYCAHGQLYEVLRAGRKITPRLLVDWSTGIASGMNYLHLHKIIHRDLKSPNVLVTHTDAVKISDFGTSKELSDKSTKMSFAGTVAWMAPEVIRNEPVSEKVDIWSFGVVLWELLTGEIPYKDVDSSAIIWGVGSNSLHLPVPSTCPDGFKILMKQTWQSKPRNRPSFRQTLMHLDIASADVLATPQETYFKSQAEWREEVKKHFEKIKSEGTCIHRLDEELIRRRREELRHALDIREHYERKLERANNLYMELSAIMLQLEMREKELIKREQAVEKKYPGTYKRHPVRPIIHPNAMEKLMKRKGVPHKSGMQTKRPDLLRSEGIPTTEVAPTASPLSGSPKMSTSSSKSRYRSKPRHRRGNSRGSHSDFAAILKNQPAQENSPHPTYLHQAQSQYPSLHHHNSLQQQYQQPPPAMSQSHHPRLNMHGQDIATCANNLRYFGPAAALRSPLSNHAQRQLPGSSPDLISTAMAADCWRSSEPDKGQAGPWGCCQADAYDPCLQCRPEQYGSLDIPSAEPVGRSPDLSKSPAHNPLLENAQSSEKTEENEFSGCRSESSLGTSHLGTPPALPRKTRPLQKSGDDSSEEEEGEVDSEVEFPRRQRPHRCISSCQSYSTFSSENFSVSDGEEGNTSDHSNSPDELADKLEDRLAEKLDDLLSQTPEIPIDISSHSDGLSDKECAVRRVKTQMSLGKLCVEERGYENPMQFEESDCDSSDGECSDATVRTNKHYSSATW
HCK, sequence (P08631 whole entry): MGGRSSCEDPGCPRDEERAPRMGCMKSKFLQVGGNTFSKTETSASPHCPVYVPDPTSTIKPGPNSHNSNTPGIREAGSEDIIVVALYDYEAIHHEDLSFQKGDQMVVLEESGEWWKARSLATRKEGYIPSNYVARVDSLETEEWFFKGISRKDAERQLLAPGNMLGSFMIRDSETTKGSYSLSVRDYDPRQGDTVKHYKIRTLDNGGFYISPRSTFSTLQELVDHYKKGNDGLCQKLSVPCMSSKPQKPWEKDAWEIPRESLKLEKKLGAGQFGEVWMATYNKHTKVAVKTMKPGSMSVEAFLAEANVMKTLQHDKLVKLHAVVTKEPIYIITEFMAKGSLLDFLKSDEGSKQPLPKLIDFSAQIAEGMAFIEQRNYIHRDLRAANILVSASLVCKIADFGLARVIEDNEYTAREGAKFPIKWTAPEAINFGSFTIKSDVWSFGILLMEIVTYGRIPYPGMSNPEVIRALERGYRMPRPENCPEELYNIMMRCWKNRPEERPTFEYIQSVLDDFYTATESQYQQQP
CLK1, sequence (P49759 whole entry): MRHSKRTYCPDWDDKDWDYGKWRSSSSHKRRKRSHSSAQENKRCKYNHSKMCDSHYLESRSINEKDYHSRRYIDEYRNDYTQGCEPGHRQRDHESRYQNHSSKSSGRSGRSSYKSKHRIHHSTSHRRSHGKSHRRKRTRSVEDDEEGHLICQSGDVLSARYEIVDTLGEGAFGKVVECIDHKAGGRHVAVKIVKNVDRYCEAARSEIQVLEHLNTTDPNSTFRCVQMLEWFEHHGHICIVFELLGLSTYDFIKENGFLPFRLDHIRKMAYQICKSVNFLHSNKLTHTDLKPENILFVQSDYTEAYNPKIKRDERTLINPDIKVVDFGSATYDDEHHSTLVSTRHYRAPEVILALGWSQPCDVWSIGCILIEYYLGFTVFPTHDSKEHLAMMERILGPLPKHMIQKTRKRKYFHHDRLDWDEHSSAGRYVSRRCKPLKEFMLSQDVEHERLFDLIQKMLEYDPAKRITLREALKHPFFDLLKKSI
NEK7, sequence (Q8TDX7 whole entry): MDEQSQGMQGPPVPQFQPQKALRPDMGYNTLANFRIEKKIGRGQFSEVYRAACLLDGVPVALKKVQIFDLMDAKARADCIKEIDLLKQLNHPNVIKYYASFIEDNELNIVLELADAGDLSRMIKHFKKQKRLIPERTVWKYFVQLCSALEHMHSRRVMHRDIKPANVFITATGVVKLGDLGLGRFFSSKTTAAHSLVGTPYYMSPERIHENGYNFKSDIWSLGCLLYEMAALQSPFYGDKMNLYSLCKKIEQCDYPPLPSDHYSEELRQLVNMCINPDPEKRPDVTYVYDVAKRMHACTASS

`COc1nc(N[C@H]2CC[C@H](NS(=O)(=O)CC(C)C)CC2)nc2[nH]nc(N3CCOC[C@H]3C)c12` [compound 39, N-(trans-4-((4-Methoxy-3-((R)-3-methylmorpholino)-1H-pyrazolo[3,4-d]pyrimidin-6-yl)amino)cyclohexyl)-2-methylpropane-1-sulfonamide]: the pIC50 on ADCK1 was not above 4.70; on AURKB, not above 4.70; at BMX, not above 4.70; on BRSK2, not above 4.70; at CAMK1 it was not above 4.70; at CDK2, 5.35. The pIC50 on CLK1, on CSNK2A2, at DDR2, on DYRK2, on EPHA4 and at HCK was not above 4.70 throughout. In addition, the pIC50 on MAP3K13, at MYLK, at NEK7, on PIK3C3, on PKN3 and on STK11 was not above 4.70 throughout. Besides, the pIC50 on TYRO3, on WNK4 and on mTOR was not above 4.70 each time.

As a reminder, the pIC50 is the negative decadic logarithm of the IC50, by convention in mol/L. Read a high pIC50 as a small IC50.

Source of the values: paper PMC6407917, “Identification of GSK3186899/DDD853651 as a Preclinical Development Candidate for the Treatment of Visceral Leishmaniasis” (Journal of Medicinal Chemistry, 2018).
